The values that follow come from US12637459B2, “Solid state forms of Lorecivivint” (TAPI CZECH INDUSTRIES S.R.O., priority 2020, dated 2026).

A short description of data set [1]: Polymorphic stability at up to 100% relative humidity at room temperature. The class given is physicochemical.
Data set [2] in a line: Hygroscopicity of the crystalline form. It counts as physicochemical. Conditions: solid state form.

In the case of `CC(C)CC(=O)Nc1cncc(-c2ccc3[nH]nc(-c4nc5c(-c6cccc(F)c6)cncc5[nH]4)c3c2)c1` [Form Q, N-[5-[3-[7-(3-fluorophenyl)-3H-imidazo[4,5-c]pyridin-2-yl]-1H-indazol-5-yl]pyridin-3-yl]-3-methylbutanamide], the time polymorphically stable in data set [1] was “at least 7 days”. The hygroscopicity result in data set [2] is recorded as “non-hygroscopic”.
